# Laboratory results: US9303088B2, “Detecting and treating breast cancer resistance to EGFR inhibitors” (The Regents of the University of California, priority 2009, dated 2016)
# B1: siRNA#1: one of two different sets of FAM83A-specific siRNA; printed as SEQ ID NO:1 (nucleic acid)
# chain: ATGAGCCGGTCAAGGCACCTGGGCAAAATCCGGAAGCGTCTGGAAGATGTCAAGAGCCAGTGGGTCCGGCCAGCCAGGGCTGACTTTAGTGACAACGAGAGTGCCCGGCTGGCCACGGACGCCCTCTTGGATGGGGGTTCTGAAGCCTACTGGCGGGTGCTCAGCCAGGAAGGCGAGGTGGACTTCTTGTCCTCGGTGGAGGCCCAGTACATCCAGGCCCAGGCCAGGGAGCCCCCGTGTCCCCCAGACACCCTGGGAGGGGCGGAAGCAGGCCCTAAGGGACTGGACTCCAGCTCCCTACAGTCCGGCACCTACTTCCCTGTGGCCTCAGAGGGCAGCGAGCCGGCCCTACTGCACAGCTGGGCCTCAGCTGAGAAGCCCTACCTGAAGGAAAAATCCAGCGCCACTGTGTACTTCCAGACCGTCAAGCACAACAACATCAGAGACCTCGTCCGCCGCTGCATCACCCGGACTAGCCAGGTCCTGGTCATCCTGATGGATGTGTTCACGGATGTGGAGATCTTCTGTGACATTCTAGAGGCAGCCAACAAGCGTGGGGTGTTCGTTTGTGTGCTCCTGGACCAGGGAGGTGTGAAGCTCTTCCAGGAGATGTGTGACAAAGTCCAGATCTCTGACAGTCACCTCAAGAACATTTCCATCCGGAGTGTGGAAGGAGAGATATACTGTGCCAAGTCAGGCAGGAAATTCGCTGGCCAAATCCGGGAGAAGTTCATCATCTCGGACTGGAGATTTGTCCTGTCTGGATCTTACAGCTTCACCTGGCTCTGCGGACACGTGCACCGGAACATCCTCTCCAAGTTCACAGGCCAGGCGGTGGAGCTGTTTGACGAGGAGTTCCGCCACCTCTACGCCTCCTCCAAGCCTGTGATGGGCCTGAAGTCCCCGCGGCTGGTCGCCCCCGTCCCGCCCGGAGCAGCCCCGGCCAATGGCCGCCTTAGCAGCAGCAGTGGCTCCGCCAGTGACCGCACGTCCTCCAACCCCTTCAGCGGCCGCTCGGCAGGCAGCCACCCCGGTACCCGAAGTGTGTCCGCGTCTTCAGGGCCCTGTAGCCCCGCGGCCCCACACCCGCCTCCACCGCCCCGGTTCCAGCCCCACCAAGGCCCTTGGGGAGCCCCGAGTCCCCAGGCCCACCTCTCCCCGCGGCCCCACGACGGCCCGCCCGCCGCTGTCTACAGCAACCTGGGGGCCTACAGGCCCACGCGGCTGCAGCTGGAGCAGCTGGGCCTGGTGCCGAGGCTGACTCCAACCTGGAGGCCCTTCCTGCAGGCCTCCCCTCACTTCTGA
# modifications: Homo sapien
# B2: FAM83A shRNA: shRNA from double-stranded DNA oligonucleotide (SEQ ID NO:7 and 8) ligated into pGreen puro lentiviral vector (nucleic acid)
# sense: GATCCGTGTGGAAGGAGAGATATACTTCCTGTCAGATATATCTCTCCTTCCACACTTTTTG
# antisense: AATTCAAAAAGTGTGGAAGGAGAGATATATCTGACAGGAAGTATATCTCTCCTTCCACACG
# Key:
# [1] = tested on: FAM83A overexpressing T4-2 cells; assay: Phenotypic reversion of FAM83A-overexpressing T4-2 cells in 3D lrECM with inhibitors; type: cell-based, human; conditions: for phenotypic reversion of full-length FAM83A overexpressing T4-2 cells: 3D lrECM (FIG. 5B)
# [2] = tested on: FAM83A-overexpressing T4-2 cells; assay: Lapatinib treatment of FAM83A-overexpressing T4-2 xenografts in mice; type: in vivo, BALB/c-nude mice
# Protocol: (§1) Animal experiments were performed under federal guidelines and approved by Institutional Animal Welfare and Research Committee at LBN. Exponentially growing T4-2 cells or MDA-MB-468 cells were suspended at the density of 5×10^6 or 10×10^6, respectively, in 100 μl medium containing DMEM/F12 medium (50%) and Matrigel (50%). Cell suspension was subcutaneously injected into the rear flank of 6-8 wk old athymic female BALB/c-nude mice (nu/nu) (Charles River Laboratories) (n=8 per group). Tumor volumes were measured every other day. ANOVA 2-way analysis with Bonferroni post test was used to determine p-value. At the end of experiments, mice were sacrificed and subjected to pathological examinations.
# (§2) The ability of FAM83A to confer cancer cell resistance to EGFR inhibitor in vivo was determined Vector control or FAM83A-overexpressing T4-2 cells were xenografted into mice, which were orally administered lapatinib by oral gavage at 30 mg/kg or 100 mg/kg twice daily for 3 weeks. […] Then, mice were randomized into vehicle (0.5% hydroxypropylmethylcellulose with 0.1% Tween 80 in water; n=8) and experimental treatment groups (n=8) to receive oral gavage of lapatinib at 30 mg/kg or 100 mg/kg twice daily for 3 weeks.
# HMT3522 T4-2 cells = assay: Phenotypic reversion of malignant T4-2 cells cultured in 3D lrECM with signaling inhibitors; type: cell-based, human; conditions: for phenotypic reversion of control T4-2 cells: vector control T4-2 cells (FIG. 17C); for induction of phenotypically normal acinus-like structures: T4-2 cells in 3D lrECM
# Text: The retroviral cDNA library from malignant T4-2 cells was re-introduced into T4-2 cells. Retrovirus transduced T4-2 cells were subsequently grown on 3D1rECM with one of the small molecule inhibitors, AG1478 (EGFR inhibitor), PD98059 (mitogen-activated protein kinase inhibitor), or LY294002 (PI3K inhibitor), […] […] After the second round of screening, the cDNA inserts were recovered from genomic DNA by PCR using primers to the flanking sequences of the retroviral cloning vector. Genomic DNA was isolated from selected clones grown on the monolayer.
# Microscopic visual fields of FIG. 3 show non-malignant HMT3522 S1 cells form polarized acinar structures (FIG. 3A) resembling normally differentiated acinus in vivo, whereas malignant T4-2 cells form disorganized colonies constantly growing on 3D 1rECM (FIG. 3B).
# (§3) FIG. 4B is a western blot of extracted cell lysates blotted with antibodies against EGFR, β-integrin, phosphorylated EGFR, and E-cadherin, which was used as a loading control.
# [3] = tested on: Vector control T4-2 cells; assay: Lapatinib treatment of vector control T4-2 xenografts in mice; type: in vivo, BALB/c-nude mice
# Protocol: as §1, §2
# FAM83A [4] = assay: RT-PCR and western blot of endogenous FAM83A in AG1478-treated T4-2 cells; type: cell-based, human
# Protocol: The expression level of endogenous FA[…] in non-reverted and reverted T4-2 cells was analyzed by RT-PCR and western blot with antibody against endogenous FA[…]. […] RNA levels in T4-2 cells cultured in both 2D monolayer and 3D 1rECM treated with AG1478 or vehicle control DMSO for 4 days. FIG. 7B is a bar graph quantification of the results from FIG. 7A. […] RNA levels in S1 cells growing in 2D or 3D cultures. FIG. 7C is a western blot comparison of FA[…] protein levels in S1 and T4-2 cells growing in 2D or 3D cultures in the presence or absence of AG1478.
# EGFR = assay: Western blot of EGFR, phosphorylated EGFR and β1-integrin in AG1478-treated T4-2 cells; type: cell-based, human; conditions: 3D lrECM, western blot (FIG. 4B)
# Text: as §3
# FAM83A [5] = assay: FAM83A protein knock-down by siRNA in T4-2 cells (western blot and immunofluorescence with FAM83A polyclonal antibody); type: cell-based, human; conditions: T4-2 lysates, western blot vs scrambled control (FIG. 14B)
# Protocol: The specificity of FAM83A polyclonal antibody was tested by performing western blot and immunofluorescence analysis in two different sets of FAM83A-specific siRNA-treated T4-2 cells (siRNA#1, SEQ ID NO:1; and siRNA#2, SEQ ID NO:2) using the FAM83A polyclonal antibody.
# MDA-MB468 cells = assay: Xenograft growth of FAM83A shRNA-treated MDA-MB468 cells in nude mice; type: in vivo, BALB/c-nude mice; conditions: fraction of the control cells (FIG. 17B)
# Protocol: as §1
# To confirm this observation for cells with stable FAM83A-depletion and a different genetic background, control or FAM83A shRNA-treated MDA-MB468 cells were subcutaneously injected into the rear flank of nude mice and monitored for their growth. For FAM83A shRNA production, a double-stranded DNA oligonucleotide was generated from the following sequences: sense, 5′-[…]-3′ (SEQ ID NO:7); antisense, 5′-[…]-3′ (SEQ ID NO:8) (target sequence underlined; BamH1/EcoR1 cohesive ends italicized). Both oligonucleotides were annealed and ligated into BamH1/EcoR1 site of pGreen puro lentival vector (System Biosciences).
# [6] = lapatinib 30 mg/kg, hematoxylin and eosin (FIG. 18B)
# [7] = lapatinib oral gavage twice daily for 3 weeks, 30 mg/kg (FIG. 17D)
molecule,measurement,setting,value
CS(=O)(=O)CCNCc1ccc(-c2ccc3ncnc(Nc4ccc(OCc5cccc(F)c5)c(Cl)c4)c3c2)o1 [lapatinib],structure of FAM83A-overexpressing T4-2 cells in presence of EGFR inhibitor,[1]; FIG. 17C,maintained disorganized structures
same,pathological examination of sectioned FAM83A-overexpressing tumors,[2]; [6],had been invading the stromal regions
same,size of lapatinib-treated FAM83A-overexpressing tumors relative to controls,[2]; lapatinib oral gavage twice daily for 3 weeks (FIG. 17D),5 times
same,growth of FAM83A-overexpressing tumors,[2]; [7],not affected
same,phenotypic reversion of control T4-2 cells,HMT3522 T4-2 cells,reverted
same,dose dependence of tumor inhibitory action on control cells,[3]; 30 mg/kg or 100 mg/kg oral gavage twice daily (FIG. 18A),independent of the dose above 30 mg/kg
same,pathological examination of sectioned control tumors,[3]; [6],well-circumscribed and distinctly separated from the stromal regions
same,growth of control tumors,[3]; [7],significantly inhibited
COc1cc2ncnc(Nc3ccc(F)c(Cl)c3)c2cc1OCCCN1CCOCC1 [gefitinib],phenotypic reversion of control T4-2 cells,HMT3522 T4-2 cells,reverted
COc1cccc(-c2cc(=O)c3ccccc3o2)c1N [PD98059],phenotypic reversion of full-length FAM83A overexpressing T4-2 cells,[1],undergo phenotypic reversion
same,induction of phenotypically normal acinus-like structures,HMT3522 T4-2 cells; 20 μM PD98059,phenotypically normal acinus-like structures were induced
AG1478,phenotypic reversion of full-length FAM83A overexpressing T4-2 cells,[1],not
same,morphology of T4-2 cells treated with AG1478,"HMT3522 T4-2 cells; 3D lrECM, 10 days, different concentrations (FIG. 4A)",form growth arrested acinus-like structures
same,induction of phenotypically normal acinus-like structures,HMT3522 T4-2 cells; 100 nM AG1478,phenotypically normal acinus-like structures were induced
same,FAM83A mRNA expression,"FAM83A [4]; AG1478 4 days, RT-PCR",decreased
same,FAM83A protein expression,"FAM83A [4]; AG1478, western blot",decreased
same,EGFR protein level,EGFR,decreased levels
same,phosphorylated EGFR level,EGFR,lower levels
same,β1-integrin protein level,EGFR,decreased levels
B1,23 kDa FAM83A band,FAM83A [5],reduced
same,99 kDa FAM83A band,FAM83A [5],reduced
B2,tumor growth relative to control cells,MDA-MB468 cells,¼
